# Test results reported in patent publication US20100278733A1, “COMPOSITION FOR DIAGNOSIS OF AMYLOID-RELATED DISEASE” (priority 2007, published 2010).
# Legend:
# Aβ(1-42) aggregate [1] = target: T1, Aβ(1-42) aggregate (Homo sapiens, UniProt P05067); assay: In-vitro binding inhibition experiment using Aβ(1-42) aggregate (Reference Example 2); conditions: ligand [^125I]4-dimethylamino-4′-iodochalcone; compound numbers of Reference Example 2; read-out: Inhibition constant (Ki, nM) (mean ± SE)
# T1 construct: Amyloid β protein (Human, 1-42) [TFA form] was purchased from Peptide Institute, Inc; purchased Peptide Institute, Inc
# Description: Amyloid β protein (Human, 1-42) [TFA form] was purchased from Peptide Institute, Inc., and special grade reagents were used as other reagents. ^1H-NMR was measured using Varian Gemini 300 and tetramethylsilane as an internal standard substance.
# The Aβ(1-42) aggregate was dissolved in a buffer containing 10 mM sodium phosphate and 1 mM EDTA (pH 7.4) at a concentration of 0.5 mg/mL, and the mixture was incubated at 37° C. for 36 to 42 h. The binding inhibition experiment was performed using 12×75-mm borosilicate glass tubes. 850 μL of 10% ethanol solution, 50 μL of [^125I]4-dimethylamino-4′-iodochalcone (in 10% aqueous ethanol), 50 μL (29 nM) of an Aβ(1-42) aggregate solution, and 50 μL of a solution of fluorine-containing chalcone derivatives in 10% aqueous ethanol prepared at various concentrations were mixed, and the mixture was allowed to stand at room temperature for 3 h. Further, nonspecific binding was calculated using 4-dimethylamino-4′iodochalcone (400 nM), a nonradioactive compound. Aβ aggregate-bound chalcone derivatives and nonbound chalcone derivatives were separated with a Brandel M-24R cell harvester using Whatman GF/B filters. Radioactivities of substances remaining on the filter were measured with a γ counter. The 50% inhibitory concentrations were calculated using Graph Pad Prism (graph pad software), and inhibition constants (Ki values) were calculated by Cheng-Prusoff equation, Ki=IC50/(1+[L]/Kd). In this equation, the concentration of [^125I]4-dimethylamino-4′-iodochalcone used in the experiment was used for [L], and the dissociation constant of [^125I]4-dimethylamino-4′-iodochalcone against the Aβ(1-42) aggregate was used for Kd.
# [2] = In-vivo radioactivity distribution experiment in normal mice (Reference Example 2); conditions: Reference Example 2 numbering; for Radioactivity concentration in the brain of mice: intravenous
# Description: Labeled compounds, [^11C]Compounds 23 and 7, were diluted with physiological saline containing 10% ethanol. 100 μL of each of the labeled compounds was intravenously infused to five 5-week-old male ddY mice per group, the animals were decapitated at 2, 10, 30, or 60 min, blood was collected, and then weights and radioactivities thereof were measured.
# Aβ(1-42) aggregate [3] = target: T1, Aβ(1-42) aggregate; assay: Binding inhibition experiment using Aβ(1-42) aggregate, Ki values (Example 2); conditions: radioactive ligand [^125I]CL-NMe2; mean ± standard error of 3 experiments (compound 4: 6 experiments); compound numbers of Example 2; read-out: Ki values calculated by inhibition experiment
# Description: As a radioactive iodine-125 (^125I), Iodine-125 (3.7 GBq/mL) manufactured by MP Biomedicals, Inc. was used. Reverse phase HPLC was performed at a flow rate of 1.0 mL/min using a Cosmosil 5C18-AR-II column (4.6×150 mm) manufactured by Nacalai Tesque Inc. and ultrapure water:acetonitrile=3:7 as an elution solvent. ^1HNMR was measured using Varian Gemini 300 and tetramethylsilane as an internal standard substance. Mass spectrometry was performed using JEOL IMS-DX300. Preparative TLC was performed using 12 PLC plates 20×20-cm-Silica gel 60 F254, 2 mm manufactured by MERCK. Amyloid β protein (Human, 1-42) was purchased from Peptide Institute, Inc., and special grade reagents were used as other reagents.
# Aβ(1-42) was dissolved in 10 mM phosphate buffer containing 1 mM EDTA (pH 7.4) at a concentration of 0.25 mg/mL, and the mixture was incubated at 37° C. for 42 h to prepare an Aβ(1-42) aggregate.
# […] of 10% EtOH solution, […] of a solution of [^125I]4-diethylamino-4′-iodochalcone ([^125I]CL-NMe2) in 10% ethanol, and […] of a sample solution at various concentrations (0 to 20 mM) were mixed, […] of an Aβ(1-42) aggregate solution was finally added, and the mixture was allowed to stand at room temperature for 3 h. Aβ(1-42) aggregate-bound compounds and nonbound compounds were separated with a Brandel M-24R cell harvester using a Whatman GF/B filter. Radioactivities remaining on the filter after filtration were measured with a γ-counter, and inhibition curves were created using Graph Pad Prism 4.0 to calculate inhibition constants (Ki values).
# [4] = In-vivo radioactivity distribution experiment using normal mice (Example 2); conditions: Example 2 numbering; for In-vivo radioactivity distribution: blood / In-vivo radioactivity distribution: brain / In-vivo radioactivity distribution: heart / In-vivo radioactivity distribution: intestine / In-vivo radioactivity distribution: kidney / In-vivo radioactivity distribution: liver / In-vivo radioactivity distribution: lung / In-vivo radioactivity distribution: pancreas / In-vivo radioactivity distribution: spleen / In-vivo radioactivity distribution: stomach: normal mice, intravenous
# Description: Radioactive iodine labeling compounds were diluted with physiological saline containing 10% EtOH. To each of four or five 5-week-old male ddY mice (20 to 25 g) per group, […] of a labeled compound, [^125I]Compound 7, 10, 13, or 14 (0.2 to 0.4 mCi), was administered from the caudal vein. Animals were decapitated at 2, 10, 30, or 60 min, blood was collected, the major organs were isolated, and then weights and radioactivities thereof were measured.
# T1 sequence (P05067 672-713 limits assumed): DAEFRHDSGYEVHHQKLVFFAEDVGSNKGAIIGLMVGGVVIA
structure (smiles),measurement,setting,value
"CN(C)c1ccc(/C=C/C(=O)c2ccc(OCCF)cc2)cc1 [Compound 3 in Reference Example 2, (E)-1-(4-(2-fluoroethoxy)phenyl)-3-(4-(dimethylamino)phenyl)prop-2-en-1-one]",Ki,Aβ(1-42) aggregate [1],29 ± 2 nM
"CN(C)c1ccc(/C=C/C(=O)c2ccc(OCCOCCF)cc2)cc1 [Compound 5 in Reference Example 2, (E)-1-(4-(2-(2-fluoroethoxy)ethoxy)phenyl)-3-(4-(dimethylamino)phenyl)prop-2-en-1-one]",Ki,Aβ(1-42) aggregate [1],19 ± 1 nM
"CN(C)c1ccc(/C=C/C(=O)c2ccc(OCCOCCOCCF)cc2)cc1 [Compound 7 in Reference Example 2, (E)-1-(4-(2-(2-(2-fluoroethoxy)ethoxy)ethoxy)phenyl)-3-(4-(dimethylamino)phenyl)prop-2-en-1-one]",ratio of brain radioactivity at 60 min to that at 2 min after administration,[2],8.1%
same,ratio of the radioactivity remaining in the brain at 30 min after administration to that at 2 min after administration,[2],14.8%
same,Radioactivity concentration in the brain of mice,"[2]; 2 min after administration, listed as [^11C] 7",4.31 ± 0.33 % ID/g
same,Radioactivity concentration in the brain of mice,"[2]; 2 min after administration, listed as [^11C]Compound 7",4.31 % ID/g
same,Radioactivity concentration in the brain of mice,[2]; 10 min after administration,1.38 ± 0.16 % ID/g
same,Radioactivity concentration in the brain of mice,[2]; 30 min after administration,0.64 ± 0.07 % ID/g
same,Radioactivity concentration in the brain of mice,"[2]; 60 min after administration, listed as [^11C] 7",0.35 ± 0.03 % ID/g
same,Radioactivity concentration in the brain of mice,"[2]; 60 min after administration, listed as [^11C]Compound 7",0.35 % ID/g
"Nc1ccc(/C=C/C(=O)c2ccc(OCCF)cc2)cc1 [Compound 11 in Reference Example 2, (E)-1-(4-(2-fluoroethoxy)phenyl)-3-(4-aminophenyl)prop-2-en-1-one]",Ki,Aβ(1-42) aggregate [1],553 ± 22 nM
"CNc1ccc(C=CC(=O)c2ccc(I)s2)cc1 [Compound 13 in Example 2, 1-(5-iodo-2-thienyl)-3-(4-methylaminophenyl)-prop-2-en-1-one]",Ki,Aβ(1-42) aggregate [3],0.0141 ± 0.0006 µM
same,stability in the organism,"[4]; in words: radioactivity accumulation in the stomach, retention in blood, deiodination",instability in the organism
same,In-vivo radioactivity distribution: blood,[4]; 2 min,3.00 (0.83) percent of the dose/g
same,In-vivo radioactivity distribution: brain,[4]; 2 min,2.56 (0.44) percent of the dose/g
same,In-vivo radioactivity distribution: heart,[4]; 2 min,3.55 (0.57) percent of the dose/g
same,In-vivo radioactivity distribution: intestine,[4]; 2 min,1.60 (0.32) percent of the dose/g
same,In-vivo radioactivity distribution: kidney,[4]; 2 min,4.50 (1.00) percent of the dose/g
same,In-vivo radioactivity distribution: liver,[4]; 2 min,8.41 (1.24) percent of the dose/g
same,In-vivo radioactivity distribution: lung,[4]; 2 min,5.61 (1.33) percent of the dose/g
same,In-vivo radioactivity distribution: pancreas,[4]; 2 min,3.73 (0.67) percent of the dose/g
same,In-vivo radioactivity distribution: spleen,[4]; 2 min,2.06 (0.49) percent of the dose/g
same,In-vivo radioactivity distribution: stomach,[4]; 2 min,1.48 (0.39) percent of the dose
same,In-vivo radioactivity distribution: blood,[4]; 10 min,3.68 (0.70) percent of the dose/g
same,In-vivo radioactivity distribution: brain,[4]; 10 min,1.13 (0.16) percent of the dose/g
same,In-vivo radioactivity distribution: heart,[4]; 10 min,2.48 (0.36) percent of the dose/g
same,In-vivo radioactivity distribution: intestine,[4]; 10 min,3.86 (0.20) percent of the dose/g
same,In-vivo radioactivity distribution: kidney,[4]; 10 min,6.59 (1.34) percent of the dose/g
same,In-vivo radioactivity distribution: liver,[4]; 10 min,13.29 (1.65) percent of the dose/g
same,In-vivo radioactivity distribution: lung,[4]; 10 min,6.33 (1.42) percent of the dose/g
same,In-vivo radioactivity distribution: pancreas,[4]; 10 min,2.53 (0.72) percent of the dose/g
same,In-vivo radioactivity distribution: spleen,[4]; 10 min,4.00 (1.55) percent of the dose/g
same,In-vivo radioactivity distribution: stomach,[4]; 10 min,5.13 (1.67) percent of the dose
same,In-vivo radioactivity distribution: blood,[4]; 30 min,2.29 (0.32) percent of the dose/g
same,In-vivo radioactivity distribution: brain,[4]; 30 min,0.28 (0.06) percent of the dose/g
same,In-vivo radioactivity distribution: heart,[4]; 30 min,1.45 (0.17) percent of the dose/g
same,In-vivo radioactivity distribution: intestine,[4]; 30 min,4.36 (1.49) percent of the dose/g
same,In-vivo radioactivity distribution: kidney,[4]; 30 min,3.16 (0.80) percent of the dose/g
same,In-vivo radioactivity distribution: liver,[4]; 30 min,5.10 (1.12) percent of the dose/g
same,In-vivo radioactivity distribution: lung,[4]; 30 min,3.17 (0.52) percent of the dose/g
same,In-vivo radioactivity distribution: pancreas,[4]; 30 min,1.48 (0.34) percent of the dose/g
same,In-vivo radioactivity distribution: spleen,[4]; 30 min,2.06 (0.28) percent of the dose/g
same,In-vivo radioactivity distribution: stomach,[4]; 30 min,9.94 (1.69) percent of the dose
same,In-vivo radioactivity distribution: blood,[4]; 60 min,2.89 (0.49) percent of the dose/g
same,In-vivo radioactivity distribution: brain,[4]; 60 min,0.15 (0.03) percent of the dose/g
same,In-vivo radioactivity distribution: heart,[4]; 60 min,1.43 (0.29) percent of the dose/g
same,In-vivo radioactivity distribution: intestine,[4]; 60 min,6.26 (1.78) percent of the dose/g
same,In-vivo radioactivity distribution: kidney,[4]; 60 min,2.52 (0.48) percent of the dose/g
same,In-vivo radioactivity distribution: liver,[4]; 60 min,4.32 (0.75) percent of the dose/g
same,In-vivo radioactivity distribution: lung,[4]; 60 min,3.11 (0.66) percent of the dose/g
same,In-vivo radioactivity distribution: pancreas,[4]; 60 min,1.76 (0.40) percent of the dose/g
same,In-vivo radioactivity distribution: spleen,[4]; 60 min,2.52 (0.36) percent of the dose/g
same,In-vivo radioactivity distribution: stomach,[4]; 60 min,14.32 (1.81) percent of the dose
"Nc1ccc(/C=C/C(=O)c2ccc(OCCOCCF)cc2)cc1 [Compound 16 in Reference Example 2, (E)-1-(4-(2-(2-fluoroethoxy)ethoxy)phenyl)-3-(4-aminophenyl)prop-2-en-1-one]",Ki,Aβ(1-42) aggregate [1],1000 ± 29 nM
"CN(C)c1ccc(/C=C/C(=O)c2ccc(F)cc2)cc1 [Compound 23 in Reference Example 2, (E)-3-(4-(dimethylamino)phenyl)-1-(4-fluorophenyl) prop-en-1-one]",ratio of brain radioactivity at 60 min to that at 2 min after administration,[2],28.3%
same,ratio of the radioactivity remaining in the brain at 30 min after administration to that at 2 min after administration,[2],28.3%
same,Radioactivity concentration in the brain of mice,"[2]; 2 min after administration, listed as [^11C] 23",3.68 ± 0.35 % ID/g
same,Radioactivity concentration in the brain of mice,"[2]; 2 min after administration, listed as [^11C]Compound 23",3.68 % ID/g
same,Radioactivity concentration in the brain of mice,[2]; 10 min after administration,1.53 ± 0.14 % ID/g
same,Radioactivity concentration in the brain of mice,[2]; 30 min after administration,1.04 ± 0.15 % ID/g
same,Radioactivity concentration in the brain of mice,"[2]; 60 min after administration, listed as [^11C] 23",1.04 ± 0.20 % ID/g
same,Radioactivity concentration in the brain of mice,"[2]; 60 min after administration, listed as [^11C]Compound 23",1.04 % ID/g
